Data as given in the NIST ThermoML archive (doi:10.1007/s10765-009-0593-3).

Assay: xn = mol fraction of the nth substance listed
Conditions: 101 kPa, Liquid; for speed of sound: Pulse-echo method

CCCOCC(C)OCC(C)O (stereo not given) [1-(1-methyl-2-propoxyethoxy)-2-propanol] + CCCCN
Conditions	mass density, 288.15 K [kg/m3]	mass density, 293.15 K [kg/m3]	mass density, 298.15 K [kg/m3]	mass density, 303.15 K [kg/m3]	mass density, 308.15 K [kg/m3]	speed of sound, 288.15 K [m/s]	speed of sound, 293.15 K [m/s]	speed of sound, 298.15 K [m/s]	speed of sound, 303.15 K [m/s]	speed of sound, 308.15 K [m/s]
x1 = 0.1119	781.657	776.972	772.263	767.527	762.757	1299.1	1277.8	1256.7	1235.5	1214.2
x1 = 0.1625	797.6	792.951	788.269	783.562	778.83	1301.8	1281	1260.2	1239.5	1218.7
x1 = 0.2153	812.62	807.989	803.334	798.647	793.946	1304.3	1283.9	1263.4	1243.2	1222.8
x1 = 0.2414	819.423	814.802	810.159	805.481	800.782	1305.4	1285.2	1264.8	1244.8	1224.6
x1 = 0.3043	834.258	829.657	825.032	820.381	815.702	1307.7	1287.9	1267.8	1248.3	1228.4
x1 = 0.35	843.808	839.22	834.611	829.962	825.299	1309.1	1289.5	1269.7	1250.3	1230.7
x1 = 0.4162	856.225	851.642	847.04	842.409	837.754	1310.7	1291.4	1271.9	1252.8	1233.4
x1 = 0.4519	862.336	857.764	853.179	848.559	843.907	1311.3	1292.2	1272.8	1253.8	1234.6
x1 = 0.4946	869.26	864.701	860.118	855.511	850.865	1311.9	1292.9	1273.7	1254.8	1235.7
x1 = 0.547	877.184	872.638	868.071	863.48	858.867	1312.4	1293.5	1274.5	1255.8	1236.8
x1 = 0.5938	883.779	879.25	874.697	870.123	865.527	1312.6	1293.8	1275	1256.3	1237.5
x1 = 0.6567	891.947	887.44	882.917	878.364	873.793	1312.5	1293.9	1275.2	1256.6	1237.9
x1 = 0.6997	897.047	892.555	888.041	883.505	878.95	1312.2	1293.7	1275.1	1256.5	1238
x1 = 0.7665	904.096	899.635	895.15	890.644	886.119	1311.5	1293	1274.6	1256.1	1237.7
x1 = 0.8068	907.864	903.41	898.94	894.449	889.942	1310.8	1292.3	1274.1	1255.7	1237.4
x1 = 0.8466	911.283	906.844	902.376	897.903	893.412	1310	1291.6	1273.4	1255.2	1236.9
x1 = 0.9038	915.886	911.457	906.999	902.546	898.065	1308.6	1290.3	1272.1	1254.2	1236.1
x1 = 0.9528	919.898	915.486	911.061	906.607	902.137	1307.2	1288.9	1270.9	1253.1	1235.2

CCCOCC(C)OCC(C)O (stereo not given) [1-(1-methyl-2-propoxyethoxy)-2-propanol] + CCCCN(CCCC)CCCC
Conditions	mass density, 288.15 K [kg/m3]	mass density, 293.15 K [kg/m3]	mass density, 298.15 K [kg/m3]	mass density, 303.15 K [kg/m3]	mass density, 308.15 K [kg/m3]	speed of sound, 288.15 K [m/s]	speed of sound, 293.15 K [m/s]	speed of sound, 298.15 K [m/s]	speed of sound, 303.15 K [m/s]	speed of sound, 308.15 K [m/s]
x1 = 0.1122	794.307	790.425	786.535	782.639	778.737	1282.3	1263	1243.9	1225	1206.3
x1 = 0.1665	800.621	796.684	792.738	788.781	784.827	1282.3	1262.8	1243.7	1224.8	1206.1
x1 = 0.2084	805.602	801.628	797.652	793.661	789.668	1282.3	1262.9	1243.8	1224.9	1206.2
x1 = 0.2538	811.153	807.13	803.115	799.083	795.057	1282.4	1263.2	1244.1	1225.3	1206.5
x1 = 0.313	818.607	814.554	810.479	806.404	802.329	1282.5	1264	1244.9	1226.1	1207.4
x1 = 0.3558	824.155	820.06	815.967	811.844	807.734	1282.8	1264.8	1245.7	1227	1208.3
x1 = 0.4148	832.006	827.869	823.733	819.576	815.399	1283.3	1266.2	1247.2	1228.5	1209.8
x1 = 0.4472	836.41	832.261	828.099	823.913	819.704	1283.7	1267.1	1248.1	1229.4	1210.8
x1 = 0.5008	843.844	839.656	835.454	831.251	826.995	1284.5	1268.8	1249.8	1231.2	1212.6
x1 = 0.5451	850.136	845.938	841.706	837.473	833.167	1285.5	1270.3	1251.5	1232.8	1214.3
x1 = 0.6077	859.289	855.06	850.786	846.555	842.165	1287.2	1272.8	1254	1235.4	1217
x1 = 0.6566	866.709	862.46	858.15	853.912	849.462	1288.9	1274.9	1256.2	1237.7	1219.3
x1 = 0.7143	875.786	871.507	867.175	862.905	858.43	1291.3	1277.5	1258.8	1240.4	1222.1
x1 = 0.7514	881.851	877.544	873.195	868.91	864.43	1293.2	1279.3	1260.7	1242.3	1224.1
x1 = 0.8016	890.298	885.967	881.597	877.285	872.799	1296.1	1281.7	1263.2	1245	1226.8
x1 = 0.856	897.74	895.367	890.981	886.63	882.174	1299.9	1284.4	1266.1	1247.9	1230
x1 = 0.904	908.188	903.8	899.4	894.989	890.566	1303.7	1286.8	1268.7	1250.6	1232.8
x1 = 0.9553	917.078	912.677	908.256	903.826	899.408	1308.3	1289.5	1271.5	1253.5	1235.9
